# Source: ChEMBL document CHEMBL1201862, “PubChem BioAssay data set” (2004)
#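 Method: 48-hour compound exposure of cells in 96-well plates, five concentrations, linear interpolation of endpoints. At the GI50, growth is halved.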 The source made the active and inactive calls. Rule as the data show it: active = GI50 up to about 1.1 µM and inactive = higher.
# What was measured:
# Test in all cases: NCI anticancer screen, dose series, 48 h
# HOP-62 = tested on: HOP-62
# U-251 = tested on: U-251
# LXFL 529 = tested on: LXFL 529
# COLO 205 = tested on: COLO 205
# LOX IMVI = tested on: LOX IMVI
# NCI-H23 = tested on: NCI-H23
# UACC-257 = tested on: UACC-257
# UACC-62 = tested on: UACC-62
# SK-MEL-2 = tested on: SK-MEL-2
# CCRF-CEM = tested on: CCRF-CEM
# KM12 = tested on: KM12
# CAKI-1 = tested on: CAKI-1
# K562 = tested on: K562
# OVCAR-8 = tested on: OVCAR-8
# SR = tested on: SR
# OVCAR-5 = tested on: OVCAR-5
# NCI-H226 = tested on: NCI-H226
# SF-295 = tested on: SF-295
# IGROV-1 = tested on: IGROV-1
# MDA-N = tested on: MDA-N
Structure (SMILES),GI50 (HOP-62),GI50 (U-251),GI50 (LXFL 529),GI50 (COLO 205),GI50 (LOX IMVI),GI50 (NCI-H23),GI50 (UACC-257),GI50 (UACC-62),GI50 (SK-MEL-2),GI50 (CCRF-CEM),GI50 (KM12),GI50 (CAKI-1),GI50 (K562),GI50 (OVCAR-8),GI50 (SR),GI50 (OVCAR-5),GI50 (NCI-H226),GI50 (SF-295),GI50 (IGROV-1),GI50 (MDA-N)
CC(C)OP(=O)(OC(C)C)/C(Cl)=N/Nc1ccc([N+](=O)[O-])cc1,> 100 µM (inactive),> 100 µM (inactive),34.7 µM (inactive),> 100 µM (inactive),44.9 µM (inactive),> 100 µM (inactive),> 100 µM (inactive),44.8 µM (inactive),> 100 µM (inactive),59 µM (inactive),> 100 µM (inactive),97.3 µM (inactive),38.7 µM (inactive),> 100 µM (inactive),92.3 µM (inactive),> 100 µM (inactive),0.778 µM (active),,,
CS/C(=N\c1nccs1)NC(=O)c1cccc(Cl)c1,> 100 µM (inactive),72.1 µM (inactive),91 µM (inactive),46.1 µM (inactive),83.6 µM (inactive),> 100 µM (inactive),> 100 µM (inactive),> 100 µM (inactive),> 100 µM (inactive),72.6 µM (inactive),> 100 µM (inactive),50.5 µM (inactive),> 100 µM (inactive),> 100 µM (inactive),24.6 µM (inactive),> 100 µM (inactive),> 100 µM (inactive),77.8 µM (inactive),> 100 µM (inactive),
COC(=O)C1CSC(c2csc(CCN)n2)=N1 (centres undefined),,> 100 µM (inactive),> 100 µM (inactive),> 100 µM (inactive),> 100 µM (inactive),> 100 µM (inactive),> 100 µM (inactive),> 100 µM (inactive),> 100 µM (inactive),> 100 µM (inactive),> 100 µM (inactive),> 100 µM (inactive),> 100 µM (inactive),> 100 µM (inactive),> 100 µM (inactive),> 100 µM (inactive),> 100 µM (inactive),> 100 µM (inactive),> 100 µM (inactive),
c1ccc(CN2COc3c(ccc4c5c(ccc34)CN(Cc3ccccc3)CO5)C2)cc1,> 100 µM (inactive),> 100 µM (inactive),> 100 µM (inactive),> 100 µM (inactive),> 100 µM (inactive),> 100 µM (inactive),> 100 µM (inactive),> 100 µM (inactive),> 100 µM (inactive),> 100 µM (inactive),> 100 µM (inactive),> 100 µM (inactive),> 100 µM (inactive),> 100 µM (inactive),> 100 µM (inactive),> 100 µM (inactive),> 76.6 µM (inactive),> 100 µM (inactive),> 100 µM (inactive),> 100 µM (inactive)
Nc1ncnc2c1ncn2C1(CO)OC(CO)C(O)C1O (centres undefined),> 100 µM (inactive),> 100 µM (inactive),> 100 µM (inactive),> 100 µM (inactive),> 100 µM (inactive),> 100 µM (inactive),> 100 µM (inactive),,> 100 µM (inactive),> 100 µM (inactive),> 100 µM (inactive),> 100 µM (inactive),,,> 100 µM (inactive),> 100 µM (inactive),> 100 µM (inactive),> 100 µM (inactive),,
CC1CCCc2c1c1ccc3c(O)cccc3c1oc2=O (centres undefined),18.7 µM (inactive),33.8 µM (inactive),48.8 µM (inactive),> 100 µM (inactive),95.5 µM (inactive),29.9 µM (inactive),> 100 µM (inactive),35.1 µM (inactive),28.9 µM (inactive),67.1 µM (inactive),> 100 µM (inactive),39.4 µM (inactive),> 100 µM (inactive),31.3 µM (inactive),> 100 µM (inactive),71.8 µM (inactive),> 100 µM (inactive),14.8 µM (inactive),39.6 µM (inactive),
COc1cc(O)c2c(c1)O[C@@H]1OCC[C@H]21,> 100 µM (inactive),> 100 µM (inactive),> 100 µM (inactive),> 100 µM (inactive),> 100 µM (inactive),> 100 µM (inactive),> 100 µM (inactive),> 100 µM (inactive),> 100 µM (inactive),> 100 µM (inactive),> 100 µM (inactive),,> 100 µM (inactive),> 100 µM (inactive),> 100 µM (inactive),> 100 µM (inactive),> 100 µM (inactive),> 100 µM (inactive),> 100 µM (inactive),
NC(CCSCC(F)F)C(=O)O (centres undefined),> 100 µM (inactive),> 100 µM (inactive),> 100 µM (inactive),> 100 µM (inactive),> 100 µM (inactive),> 100 µM (inactive),> 100 µM (inactive),> 100 µM (inactive),,> 100 µM (inactive),> 100 µM (inactive),> 100 µM (inactive),> 100 µM (inactive),> 100 µM (inactive),> 100 µM (inactive),> 100 µM (inactive),> 100 µM (inactive),> 100 µM (inactive),> 100 µM (inactive),
COc1cccc2c1C(CO)N1C(C#N)C3CC(C(=O)O)C(C1C2)N3C (centres undefined),,1.52 µM (inactive),2.56 µM (inactive),1.26 µM (inactive),1.95 µM (inactive),1.57 µM (inactive),1.66 µM (inactive),1.16 µM (inactive),1.21 µM (inactive),1.1 µM (active),1.98 µM (inactive),1.29 µM (inactive),1.63 µM (inactive),1.68 µM (inactive),2.08 µM (inactive),2.85 µM (inactive),,4.7 µM (inactive),,0.273 µM (active)
O=C1CCNC/C1=C\c1ccccc1,29.1 µM (inactive),20.5 µM (inactive),16.1 µM (inactive),40.6 µM (inactive),16.8 µM (inactive),18.2 µM (inactive),25.8 µM (inactive),17.1 µM (inactive),54 µM (inactive),,14.8 µM (inactive),44.8 µM (inactive),23.1 µM (inactive),22.2 µM (inactive),25.2 µM (inactive),24.7 µM (inactive),24 µM (inactive),26.9 µM (inactive),29.9 µM (inactive),
